From US20140357720A1, “NOVEL PHYTOSPHINGOSINE DERIVATIVES, AND A COSMETIC COMPOSITION COMPRISING THE SAME FOR PREVENTING AND AMELIORATING INFLAMMATORY SKIN DISEASES AND HYPERKERATOSIS DISEASES” (THE CATHOLIC UNIVERSITY OF KOREA INDUSTRY-ACADEMIC …, priority 2011, published 2014)

Key:
[1] = system: NF-κB; test: Phosphorylation and degradation of IκBα and phosphorylation of NF-κB in TPA-stimulated skin keratinocytes (western blot); assay type: cell-based, human
Method: (§1) Herein, in order to verify the effect of novel synthetic YG-II-6 compounds and their lead compound, phytosphingosine, on phosphorylation and degradation of IκBα, which is a protein that inhibits the activity of NF-κB by forming a complex with NF-κB, skin keratinocytes were pre-treated with respective compounds for 1 hour and then stimulated with 400 nM TPA for 15 minutes and 30 minutes, respectively. In order to verify the phosphorylation of NF-κB and the expression level of NF-κB in the cytoplasm and nucleus, skin keratinocytes were stimulated for 15 minutes and 1 hour, respectively. The results were confirmed by western blot analysis. In addition, the nuclear translocation of NF-κB was confirmed through reaction with antibodies, fluorescent labeling, and direct observation by microscopy. In order to verify the activity of the respective compounds at the transcription stage, cells were transfected with plasmids labeled with NF-κB luciferase reporter, and the luciferase activity was measured by the luciferase assay. In addition, the phosphorylation of IκBα and NF-κB was measured in the PTA-stimulated mouse skin.

[2] = system: NF-κB; test: Nuclear translocation of NF-κB in TPA-stimulated skin keratinocytes (immunostaining, microscopy); assay type: cell-based, human; settings: TPA stimulation, FIG. 1B
Method: as §1

[3] = system: NF-κB; test: NF-κB luciferase reporter assay, TPA stimulation; assay type: cell-based; settings: FIG. 1C
Method: as §1

[4] = system: ERK1/2, p38, JNK; test: MAP kinase phosphorylation in TPA-stimulated skin keratinocytes (western blot); assay type: cell-based, human; settings: FIG. 4
Method: In order to verify the effects of the respective compounds on MAP kinase, skin keratinocytes were treated with the respective compounds for 1 hour, and then stimulated with 400 nM TPA for 15 minutes. The level of phosphorylation was confirmed by western blot assay.

[5] = system: human-derived keratinocytes; test: Cytotoxicity on human-derived keratinocytes (WST-1 reagent); assay type: cell-based; settings: WST-1, FIG. 7A
Method: (§2) Therefore, in order to verify the degree of the cytotoxicity of the YG-II-6 compounds, their cytotoxicity on human-derived keratinocytes was confirmed by using the WST-1 reagent. In order to verify the effects of the compounds on the expression of proteins associated with apoptosis, the keratinocytes were treated with corresponding concentrations of the respective compound samples and stimulated with TPA for 24 hours, and the expression levels of proteins were confirmed by western blot assay. In addition, human-derived keratinocytes and primary culture skin keratinocytes were treated with the compounds, and after 24 hours, subjected to FITC staining and TUNEL assay, and the skin tissues isolated from TPA-induced mice was subjected to FITC staining.

[6] = system: human-derived keratinocytes and primary culture skin keratinocytes; test: Apoptosis in keratinocytes (FITC staining and TUNEL assay); assay type: cell-based; settings: 24 hours, FIGS. 7C to 7E
Method: as §2

[7] = system: mouse skin tissues; test: Apoptosis in skin tissues isolated from TPA-induced mice (FITC staining); assay type: in vivo; settings: FIGS. 7C to 7E
Method: as §2

[8] = overall conclusion of section 2-1

| NF-κB luciferase activity increased by TPA stimulation [3] | Structure (SMILES) | inhibitory effect on the NF-κB activation, fYG-II-6 compared with mYG-II-6 [1, 8] | activation of NF-κB (phosphorylation and degradation of IκBα) [1, 8] | phosphorylation of IκBα and NF-κB increased by TPA stimulation ([1]; skin keratinocytes, 1 hour pre-treatment, 400 nM TPA, FIG. 1A) | nuclear translocation of NF-κB [2] | inhibitory activity on phosphorylation of ERK1/2, p38, and JNK relative to the YG-II-6 compounds [4] | phosphorylation of ERK1/2, p38, and JNK ([4]; skin keratinocytes, 1 hour treatment, 400 nM TPA 15 minutes) | concentration at which cytotoxicity was shown [5] | apoptosis in the TPA-stimulated cells [6] | apoptosis in the mouse skin tissues [7] |
| --- | --- | --- | --- | --- | --- | --- | --- | --- | --- | --- |
|  | CCCCCCCCCCCCCC[C@@H](O)[C@@H](O)[C@H](CO)NC(=O)/C=C/C(=O)O [fYG-II-6, (E)-4-oxo-4-(((2S,3S,4R)-1,3,4-trihydroxyoctadecan-2-yl)amino)but-2-enoic acid] | relatively greater inhibitory effect than mYG-II-6 |  |  |  |  |  |  |  |  |
| inhibited | CCCCCCCCCCCCCC[C@@H](O)[C@@H](O)[C@@H](N)CO [phytosphingosine] |  | inhibited | inhibited | inhibited | relatively weaker inhibitory activity | no or little inhibitory effect | 5 to 10 µM | induced apoptosis | induced apoptosis |
